Experimental data as given in BindingDB's records for doi:10.1111/cbdd.12881 (Sichuan University, 2017).

Columns and labels:
Assay in all cases: In Vitro Enzymatic Assay
Details in all cases: 25 °C
[1] = target: Protein arginine N-methyltransferase 5 (Homo sapiens, UniProt O14744)
Experimental: (§1) All in vitro enzymatic assays were carried out by Shanghai ChemPartner Co. (998 Halei Road, Pudong New Area, Shanghai, 201203, China). To measure the IC50 values, 10 concentrations of the target compound were tested. Compounds were prepared as10 mM stock in DMSO and diluted to final concentration in DMSO when needed. The PRMT enzymes and substrates were incubated with indicated concentrations of compounds in a 384-well plate for 60 min at room temperature. After the reaction, acceptor and donor solutions were added to label the residual substrates of PRMT enzymes. The labeling process was lasting for 60 min at room temperature, followedby the reading end-point with Enspire with alpha mode.

[2] = target: Protein arginine N-methyltransferase 6 (Homo sapiens, UniProt Q96LA8)
Experimental: as §1

[3] = target: T1, Protein arginine N-methyltransferase 7 (Homo sapiens, UniProt Q9NVM4)
T1 sequence (Q9NVM4 whole entry): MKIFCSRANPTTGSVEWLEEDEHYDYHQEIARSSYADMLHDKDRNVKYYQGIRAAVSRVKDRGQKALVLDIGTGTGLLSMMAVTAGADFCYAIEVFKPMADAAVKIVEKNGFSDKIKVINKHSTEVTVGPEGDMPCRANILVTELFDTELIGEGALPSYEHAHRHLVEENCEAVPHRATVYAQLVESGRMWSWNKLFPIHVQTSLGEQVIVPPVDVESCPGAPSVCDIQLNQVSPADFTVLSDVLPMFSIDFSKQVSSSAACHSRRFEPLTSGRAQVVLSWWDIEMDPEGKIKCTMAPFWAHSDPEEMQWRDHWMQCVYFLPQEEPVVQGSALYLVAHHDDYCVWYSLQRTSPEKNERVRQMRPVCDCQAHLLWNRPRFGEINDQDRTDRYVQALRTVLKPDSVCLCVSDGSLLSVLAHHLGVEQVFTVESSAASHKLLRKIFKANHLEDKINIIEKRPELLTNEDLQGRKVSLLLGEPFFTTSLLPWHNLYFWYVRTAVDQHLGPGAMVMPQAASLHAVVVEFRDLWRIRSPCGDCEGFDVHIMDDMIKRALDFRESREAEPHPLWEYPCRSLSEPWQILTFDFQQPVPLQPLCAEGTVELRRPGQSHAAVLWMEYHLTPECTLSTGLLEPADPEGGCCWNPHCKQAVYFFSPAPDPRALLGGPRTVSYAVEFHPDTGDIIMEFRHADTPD
Experimental: as §1

[4] = target: Protein arginine N-methyltransferase 3 [N508S] (Homo sapiens, UniProt O60678, N508S)
Experimental: as §1

[5] = target: Protein arginine N-methyltransferase 8 (Homo sapiens, UniProt Q9NR22)
Experimental: as §1

[6] = target: T2, Protein arginine N-methyltransferase 1 [11-371] (Homo sapiens, UniProt Q99873)
T2 construct: 11-371
Experimental: as §1

[7] = target: T3, Histone-arginine methyltransferase CARM1 (Homo sapiens, UniProt Q86X55)
T3 sequence (Q86X55 whole entry): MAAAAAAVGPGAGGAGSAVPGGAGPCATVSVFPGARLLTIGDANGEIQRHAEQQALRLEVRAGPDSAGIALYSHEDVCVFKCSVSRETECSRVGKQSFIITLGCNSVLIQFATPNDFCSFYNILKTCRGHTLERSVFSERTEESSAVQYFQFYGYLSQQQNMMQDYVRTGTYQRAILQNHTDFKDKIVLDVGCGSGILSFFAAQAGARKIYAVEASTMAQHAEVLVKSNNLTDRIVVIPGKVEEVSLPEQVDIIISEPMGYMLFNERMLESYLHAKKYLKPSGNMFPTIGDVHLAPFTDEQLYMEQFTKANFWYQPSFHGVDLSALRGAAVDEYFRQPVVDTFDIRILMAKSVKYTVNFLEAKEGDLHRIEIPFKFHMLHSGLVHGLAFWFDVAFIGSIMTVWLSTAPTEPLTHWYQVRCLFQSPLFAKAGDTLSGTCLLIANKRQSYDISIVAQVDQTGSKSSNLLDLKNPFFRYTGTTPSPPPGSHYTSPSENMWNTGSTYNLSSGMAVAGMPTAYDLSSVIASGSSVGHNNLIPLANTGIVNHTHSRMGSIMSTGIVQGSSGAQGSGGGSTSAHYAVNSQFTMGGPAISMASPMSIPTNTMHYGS
Experimental: as §1

Protein arginine N-methyltransferase 5, sequence (O14744 whole entry): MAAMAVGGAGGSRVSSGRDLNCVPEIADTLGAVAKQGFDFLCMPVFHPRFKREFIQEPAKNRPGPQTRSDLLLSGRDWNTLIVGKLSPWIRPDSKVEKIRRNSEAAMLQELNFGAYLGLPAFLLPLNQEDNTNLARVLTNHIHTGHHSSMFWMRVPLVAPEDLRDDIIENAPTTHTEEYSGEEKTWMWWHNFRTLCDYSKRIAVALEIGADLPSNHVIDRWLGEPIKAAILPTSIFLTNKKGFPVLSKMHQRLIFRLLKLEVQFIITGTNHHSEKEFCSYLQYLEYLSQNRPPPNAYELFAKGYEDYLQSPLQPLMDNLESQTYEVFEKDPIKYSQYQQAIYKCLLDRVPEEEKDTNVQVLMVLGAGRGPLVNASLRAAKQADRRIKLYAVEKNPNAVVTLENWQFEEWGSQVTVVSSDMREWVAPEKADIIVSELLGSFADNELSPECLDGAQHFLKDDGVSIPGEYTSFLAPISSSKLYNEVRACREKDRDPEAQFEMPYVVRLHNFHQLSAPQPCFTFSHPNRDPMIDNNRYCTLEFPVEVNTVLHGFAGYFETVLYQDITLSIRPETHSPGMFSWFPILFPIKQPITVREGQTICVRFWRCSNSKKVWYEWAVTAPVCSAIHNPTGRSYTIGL
T2 sequence (Q99873 11-371): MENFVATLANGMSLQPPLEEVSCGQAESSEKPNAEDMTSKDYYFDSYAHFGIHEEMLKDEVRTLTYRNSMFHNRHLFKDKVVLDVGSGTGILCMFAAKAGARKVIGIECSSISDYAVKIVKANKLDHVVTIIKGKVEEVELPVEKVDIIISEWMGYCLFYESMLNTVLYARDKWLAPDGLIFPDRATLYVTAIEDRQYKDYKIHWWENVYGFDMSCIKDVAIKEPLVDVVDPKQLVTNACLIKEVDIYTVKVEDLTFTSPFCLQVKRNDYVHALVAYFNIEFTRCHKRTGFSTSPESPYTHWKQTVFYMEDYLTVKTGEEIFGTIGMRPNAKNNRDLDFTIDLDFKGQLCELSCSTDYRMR
Protein arginine N-methyltransferase 8, sequence (Q9NR22 whole entry): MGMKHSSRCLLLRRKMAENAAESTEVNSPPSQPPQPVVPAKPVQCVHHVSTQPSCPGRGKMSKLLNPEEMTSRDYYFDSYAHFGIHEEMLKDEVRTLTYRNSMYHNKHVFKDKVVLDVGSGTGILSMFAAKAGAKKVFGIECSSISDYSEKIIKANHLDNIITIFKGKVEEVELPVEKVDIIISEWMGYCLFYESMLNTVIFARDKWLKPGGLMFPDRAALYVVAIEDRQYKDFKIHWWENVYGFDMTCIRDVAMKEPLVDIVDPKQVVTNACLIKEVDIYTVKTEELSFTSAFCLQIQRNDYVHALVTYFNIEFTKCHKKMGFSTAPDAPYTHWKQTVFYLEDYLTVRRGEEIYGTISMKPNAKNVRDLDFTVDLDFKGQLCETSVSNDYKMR
Protein arginine N-methyltransferase 3 [N508S], sequence (O60678 2-531 N508S limits assumed): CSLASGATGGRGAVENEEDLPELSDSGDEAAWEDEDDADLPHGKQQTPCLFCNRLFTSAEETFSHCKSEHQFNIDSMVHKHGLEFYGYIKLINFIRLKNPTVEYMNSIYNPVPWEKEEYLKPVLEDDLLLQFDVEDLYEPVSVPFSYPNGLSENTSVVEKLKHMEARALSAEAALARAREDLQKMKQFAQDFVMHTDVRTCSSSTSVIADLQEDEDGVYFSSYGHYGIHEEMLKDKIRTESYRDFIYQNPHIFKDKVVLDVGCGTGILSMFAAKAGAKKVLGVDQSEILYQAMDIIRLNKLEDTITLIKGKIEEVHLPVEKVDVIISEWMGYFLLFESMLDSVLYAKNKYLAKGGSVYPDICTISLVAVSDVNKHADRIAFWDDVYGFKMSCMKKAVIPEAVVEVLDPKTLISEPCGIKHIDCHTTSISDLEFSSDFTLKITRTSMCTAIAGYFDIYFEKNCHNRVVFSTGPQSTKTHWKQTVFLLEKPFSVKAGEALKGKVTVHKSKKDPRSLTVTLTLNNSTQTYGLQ
Protein arginine N-methyltransferase 6, sequence (Q96LA8 whole entry): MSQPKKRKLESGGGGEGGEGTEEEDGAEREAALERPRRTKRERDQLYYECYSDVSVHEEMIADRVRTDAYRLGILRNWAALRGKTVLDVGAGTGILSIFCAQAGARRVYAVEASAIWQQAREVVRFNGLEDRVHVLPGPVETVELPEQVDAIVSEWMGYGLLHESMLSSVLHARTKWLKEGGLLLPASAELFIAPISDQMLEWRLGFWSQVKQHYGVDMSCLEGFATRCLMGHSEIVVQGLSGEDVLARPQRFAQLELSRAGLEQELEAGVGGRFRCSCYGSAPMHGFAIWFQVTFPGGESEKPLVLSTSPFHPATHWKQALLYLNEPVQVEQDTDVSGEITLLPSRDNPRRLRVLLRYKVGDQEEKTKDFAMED

SMILES | IC50 [1] [µM] | further results
NC(=S)N/N=C/c1ccc(-c2ccc(Cl)cc2)o1 [P5i-7] | 0.72 | –
NC(=O)N/N=C/c1cccc(-c2ccc(Cl)cc2)n1 [2-((6-(4-chlorophenyl)pyridin-2-yl)methylene)hydrazinecarboxamide (9g)] | 3.5 | –
COc1ccc(-c2ccc(/C=N/NC(N)=O)o2)cc1 [2-((5-(4-methoxyphenyl)furan-2-yl)methylene)hydrazinecarboxamide (4h)] | 2.1 | –
NC(=O)N/N=C/c1ccc(-c2ccc(Cl)cc2N)o1 [2-((5-(2-amino-4-chlorophenyl)furan-2-yl)methylene)hydrazinecarboxamide (4m)] | 13 | –
NC(=O)N/N=C/c1cccc(-c2ccc(Cl)cc2)c1 [2-((4′-chloro-[1,1′-biphenyl]-3-yl)methylene)hydrazinecarboxamide (9b)] | 3.8 | –
NC(=O)N/N=C/c1ccc(-c2ccc([N+](=O)[O-])cc2)o1 [2-((5-(4-nitrophenyl)furan-2-yl)methylene)hydrazinecarboxamide (4g)] | 18 | –
NC(=O)N/N=C/c1ccc(-c2ccc(F)cc2)o1 [2-((5-(4-fluorophenyl)furan-2-yl)methylene)hydrazinecarboxamide (4e)] | 12 | –
NC(=O)N/N=C/c1ccc(-c2ccc(Cl)cc2)o1 [P5i-6] | – | IC50 [2]: > 100 µM; IC50 [3]: > 100 µM; IC50 [4]: > 100 µM; IC50 [5]: > 100 µM; IC50 [6]: > 100 µM; IC50 [7]: > 100 µM
NC(=O)N/N=C/c1ccc(-c2ccccc2)o1 [2-((5-phenylfuran-2-yl)methylene)hydrazinecarboxamide (4a)] | 12 | –
NC(=O)N/N=C/c1ccc(-c2cccc(F)c2)o1 [2-((5-(3-fluorophenyl)furan-2-yl)methylene)hydrazinecarboxamide (4d)] | 14 | –
NC(=O)N/N=C/c1cncc(-c2ccc(Cl)cc2)c1 [2-((5-(4-chlorophenyl)pyridin-3-yl)methylene)hydrazinecarboxamide (9f)] | 6.9 | –
O=C1NC(=S)NC(=O)C1=Cc1ccc(-c2ccc(Cl)cc2)o1 [5-{[5-(4-chlorophenyl)furan-2-yl]methylidene}-2-sulfanylidene-1,3-diazinane-4,6-dione] | 67 | –
NC(=O)N/N=C/c1ccc(-c2ccc(N)cc2)o1 [2-((5-(4-aminophenyl)furan-2-yl)methylene)hydrazinecarboxamide (4j)] | 40 | –
